Assay results reported in patent US20010006969A1, “PYRIMIDINE NUCLEUS-CONTAINING COMPOUND AND A MEDICAMENT CONTAINING THE SAME FOR A BLOOD OXYGEN PARTIAL PRESSURE AMELIORATION, AND A METHOD FOR PREPARING THE SAME” (priority 1997, published 2001).
Structures can show the parent of a compound that is named as a salt.

Columns and labels:
hypoxemic model rats = assay: Determination of oxygen partial pressure increasing action (arterial blood PaO2 gain in hypoxemic model rats); format: in vivo, Sprague-Dawley male rats; conditions: urethane-anesthetized rats, i.v. continuously 0.1 mg/kg/min, PaO2 measured 10 minutes after completion of administration, gain before vs after
Experimental: Determination of oxygen partial pressure increasing action
Actions of the quinazoline derivatives of the present invention to increase oxygen partial pressure in the arterial blood were determined according to the following method:
Sprague-Dawley male rats having body weights of about 250 g were anesthetized (i.p.) with urethane and cannulated to the respiratory tracts, femoral arteries and femoral veins. An olive oil-charcoal powder suspension (10 mg/ml) was introduced in an amount of 0.8 ml/kg through the respiratory tract cannulae into the lungs to cause the rats to hypoxic state (PaO2≦75 mmHg). The quinazoline derivatives listed in Table 1 were intravenously administered to these hypoxemic model rats continuously at a rate of 0.1 mg/kg/min, and arterial blood oxygen partial pressure value (PaO2) of each rat was measured at the time point of 10 minutes after completion of administration using a blood gas analyzer (Ciba Corning 800 series). Gains (APaO2) were determined based on results of PaO2 measurement made before and after administration of the test compounds.
Actions of the thienopyrimidine derivatives of the present invention to increase oxygen partial pressure in the arterial blood were determined according to the following method:
Sprague-Dawley male rats having body weights of about 250 g were anesthetized (i.p.) with urethane and cannulated to the respiratory tracts, femoral arteries and femoral veins. An olive oil-charcoal powder suspension (10 mg/ml) was introduced in an amount of 0.8 ml/kg through the respiratory tract cannulae into the lungs to cause the rats to be under hypoxic state (PaO2 Δ 75 mmHg). The thienopyrimidine derivatives listed in Table 2 were intravenously administered to these hypoxemic model rats continuously at a rate of 0.1 mg/kg/min, and arterial blood oxygen partial pressure value (PaO2) of each rat was measured at the time point of 10 minutes after completion of administration using a blood gas analyzer (Ciba Corning 800 series). Gains (ΔPaO2) were determined based on results of PaO2 measurement made before and after administration of the test compounds.

[1] = quinazoline derivatives, hypoxic state (PaO2≦75 mmHg) by olive oil-charcoal powder suspension
[2] = thienopyrimidine derivatives, hypoxic state (PaO2 Δ 75 mmHg) by olive oil-charcoal powder suspension

SMILES	melting point	ΔPaO2 (hypoxemic model rats; [1]) [mmHg]	ΔPaO2 (hypoxemic model rats; [2]) [mmHg]
C=CCNc1nc(NCCC)nc2ccc([N+](=O)[O-])cc12 [Example 4, 4-Allylamino-6-nitro-2-propylaminoquinazoline]	197 to 198 °C	34	–
C=CCNc1nc(NCC=C)c2cc(Cl)ccc2n1 [Example 1, 2,4-Diallylamino-6-chloroquinazoline]	78 to 79 °C	35	–
C=CCNc1nc(NC2CCCCC2)nc2ccc([N+](=O)[O-])cc12 [Example 7, 4-Allylamino-2-cyclohexylamino-6-nitroquinazoline]	183 to 184 °C	35	–
C=CCNc1nc(NCc2ccco2)nc2ccc([N+](=O)[O-])cc12 [Example 33, 4-Allylamino-2-furfurylamino-6-nitroquinazoline hydrochloride]	–	42	–
C=CCNc1nc(NCCCCC)c2cc([N+](=O)[O-])ccc2n1 [Example 25, 2-Allylamino-6-nitro-4-pentylaminoquinazoline hydrochloride]	–	46	–
C=CCNc1nc(NC2CCCCC2)c2scc(C)c2n1 [Example 70, 2-Allylamino-4-cyclohexylamino-7-methylthieno[3,2-d] pyrimidine hydrochloride]	–	–	42
C=CCNc1nc(NC2CCCC2)c2cc([N+](=O)[O-])ccc2n1 [Example 27, 2-Allylamino-4-cyclopentylamino-6-nitroquinazoline hydrochloride]	–	35	–
C=CCNc1nc(NC2CCCC2)nc2ccc([N+](=O)[O-])cc12 [Example 34, 4-Allylamino-2-cyclopentylamino-6-nitroquinazoline hydrochloride]	–	32	–
C=CCNc1nc(NC(C)C)nc2ccc([N+](=O)[O-])cc12 [Example 18, 4-Allylamino-2-isopropylamino-6-nitroquinazoline]	150 to 151 °C	30	–
C=CCNc1nc(NCCCCC)nc2ccc([N+](=O)[O-])cc12 [Example 35, 4-Allylamino-6-nitro-2-pentylaminoquinazoline hydrochloride]	–	34	–
C=CCNc1nc(NC(C)(C)C)c2scc(CCC)c2n1 [Example 106, 2-Allylamino-4-t-butylamino-7-propylthieno[3,2-d] pyrimidine]	–	–	28
C=CCNc1nc(NC(C)C)c2cc([N+](=O)[O-])ccc2n1 [Example 28, 2-Allylamino-4-isopropylamino-6-nitroquinazoline hydrochloride]	–	26	–
C=CCNc1nc(N(CC=C)CC=C)c2scc(C)c2n1 [Example 71, 2-Allylamino-4-diallylamino-7-methylthieno[3,2-d] pyrimidine hydrochloride]	–	–	26
C=CCNc1nc(NC)c2scc(CCC)c2n1 [Example 107, 2-Allylamino-4-methylamino-7-propylthieno[3,2-d] pyrimidine]	–	–	41
C=CCNc1nc(N(CC=C)CC=C)nc2ccc([N+](=O)[O-])cc12 [Example 9, 4-Allylamino-2-diallylamino-6-nitroquinazoline]	167 to 168 °C	–	–
C=CCNc1nc(NC(C)(C)C)c2scc(CC)c2n1 [Example 104, 2-Allylamino-4-t-butylamino-7-ethylthieno[3,2-d]pyrimidine]	–	–	41
C=CCNc1nc(NCC=C)c2scc(CCC)c2n1 [Example 105, 2,4-Diallylamino-7-propylthieno[3,2-d]pyrimidine]	–	–	28
C=CCNc1nc(NCCCCCCC)c2cc([N+](=O)[O-])ccc2n1 [Example 26, 2-Allylamino-4-heptylamino-6-nitroquinazoline hydrochloride]	–	46	–
C=CCNc1nc(N(CC=C)CC=C)nc2c(C)csc12 (as salt: hydrochloride)	136 to 138 °C (dec.)	–	–
C=CCNc1nc(NCCCC)nc2ccc([N+](=O)[O-])cc12 [Example 31, 4-Allylamino-2-butylamino-6-nitroquinazoline hydrochloride]	–	36	–
C=CCNc1nc(NC(C)CC)c2cc([N+](=O)[O-])ccc2n1 (stereo not drawn) [Example 49, 2-Allyiamino-4-(l-methylpropylamino)-6-nitroquinazoline hydrochloride]	–	32	–

More lines, main results first:

melting point	SMILES	ΔPaO2 (hypoxemic model rats; [1]) [mmHg]	ΔPaO2 (hypoxemic model rats; [2]) [mmHg]
55 °C	C=CCNc1nc(NCC=C)c2scc(CC)c2n1 [Example 103, 2,4-Diallylamino-7-ethylthieno[3,2-d]pyrimidine]	–	30
107 to 109 °C	C=CCNc1nc(NC23CC4CC(CC(C4)C2)C3)c2scc(C)c2n1 [Example 79, 4-(1-Adamantylamino)-2-allylamino-7-methylthieno[3,2-d] pyrimidine]	–	36
89 to 90 °C	C=CCNc1nc(NC(C)(C)C)c2scc(C)c2n1 [Example 68, 2-Allylamino-4-t-butylamino-7-methylthieno[3,2-d] pyrimidine]	–	31
156 to 157 °C	C=CCNc1nc(NCCOCCC)c2cc([N+](=O)[O-])ccc2n1 [Example 39, 2-Allylamino-6-nitro-4-(2-propoxyethylamino)quinazoline]	30	–
91 to 92 °C	C=CCNc1nc(NC(C)CC)c2scc(C)c2n1 (centres unmarked) [Example 84, 2-Allylamino-7-methyl-4-(1-methylpropylamino)thieno[3,2-d] pyrimidine]	–	27
98 to 101 °C	C=CCNc1nc(NC(=O)N2CCCC2)c2scc(C)c2n1 [Example 98, 2-Allylamino-7-methyl-4-(1-pyrrolidinylcarbonyl)aminothieno[3,2-d]pyrimidine]	–	–
145 to 146 °C	C=CCNc1nc(NN(C)C)c2cc([N+](=O)[O-])ccc2n1 [Example 46, 2-Allylamino-4-(2,2-dimethylhydrazino)-6-nitroquinazoline]	–	–
105 to 107 °C	C=CCNc1nc(NNC(C)(C)C)c2scc(C)c2n1 [Example 89, 2-Allylamino-4-(2-t-butylhydrazino)-7-methylthieno[3,2-d] pyrimidine]	–	–
169 to 170 °C	C=CCNc1nc(NCCOCCC)nc2ccc([N+](=O)[O-])cc12 [Example 38, 4-Allylamino-6-nitro-2-(2-propoxyethylamino)quinazoline]	–	–
87 to 88 °C	C=CCNc1nc(NCC=C)c2scc(Br)c2n1 [Example 111, 2,4-Diallylamino-7-bromothieno[3,2-d]pyrimidine]	–	–
82 to 84 °C	C=CCNc1nc(NC/C=C/c2ccccc2)c2scc(C)c2n1 [Example 102, 2-Allylamino-4-(trans-cinnamylamino)-7-methylthieno[3,2-d] pyrimidine]	–	–
188 to 189 °C	C=CCNc1nc(NC/C=C/C)nc2ccc([N+](=O)[O-])cc12 [Example 30, 4-Allylamino-2-(trans-2-butenylamino)-6-nitroquinazoline]	–	–
98 to 100 °C	C=CCNc1nc(NCC=C)c2scc(-c3ccccc3)c2n1 [Example 110, 2,4-Diallylamino-7-phenylthieno[3,2-d]pyrimidine]	–	–
172 to 173 °C	C=CCNc1nc(NC(C)C=C)c2cc([N+](=O)[O-])ccc2n1 (centres unmarked) [Example 63, 2-Allylamino-4-(1-methyl-2-propenylamino)-6-nitroquinazoline]	–	–
154 to 155 °C	C=CCNc1nc(NCCCCCCCCCCCC)c2cc([N+](=O)[O-])ccc2n1 [Example 47, 2-Allylamino-4-dodecylamino-6-nitroquinazoline]	–	–
224 to 225 °C	C=CCNc1nc(NC23CC4CC(CC(C4)C2)C3)c2cc([N+](=O)[O-])ccc2n1 [Example 52, 4-(1-Adamantylamino)-2-allylamino-6-nitroquinazoline]	–	–
156 to 158 °C	C=CC(C)Nc1nc(NCCCC)nc2ccc([N+](=O)[O-])cc12 (centres unmarked) [Example 62, 2-Butylamino-4-(1-methyl-2-propenylamino)-6-nitroquinazoline]	–	–
206 to 208 °C	C=CCNc1nc(NC/C=C/c2ccccc2)c2cc([N+](=O)[O-])ccc2n1 [Example 23, 2-Allylamino-4-trans-cinnamylamino-6-nitroquinazoline]	–	–
173 to 174 °C	C=CCNc1nc(NCCCCCCC)nc2ccc([N+](=O)[O-])cc12 [Example 36, 4-Allylamino-2-heptylamino-6-nitroquinazoline]	–	–
214 to 215 °C	C=CCNc1nc(NCCCC)c2cc([N+](=O)[O-])ccc2n1 [Example 24, 2-Allylamino-4-butylamino-6-nitroquinazoline]	–	–
